The text below walks through data of US20050288369A1, “Novel n-hydroxy thiourea, urea and amide compounds and the pharmaceutical compositions comprising the same” (priority 2002, published 2005).

Assay [1] addresses T1, vanilloid receptor-1 (VR1) (Rattus norvegicus, UniProt O35433).
T1 construct: expressed in transfected cells; host or cells: Chinese Hamster Ovary cells (CHO, ATCC CCL-61), Tet-off inducible expression
The assay is described as follows: [3H]RTX competition binding assay, VR1-expressing CHO cells. Particulars: displacement of bound [3H]RTX; mean±SEM, 3 experiments. The procedure: The binding affinity activity of the target compounds for vanilloid receptor-1 was measured by an in vitro receptor binding affinity assay. In the receptor binding assay, the compounds were evaluated for their ability to displace bound [^3H]RTX from the receptor. The results are expressed in terms of Ki values (mean±SEM, 3 experiments) which represent the concentration of the non-radioactive ligand that displaces half of the bound labeled RTX.
The VR receptor binding affinity activity of the inventive compounds was measured by using Chinese Hamster Ovary (CHO, ATCC, No. CCL-61) cell whose cDNA of VR1 (pUHG102 VR1 plasmid) was transfected, which can control the expression of VR1 according to the presence of tetracycline and Tetracycline on/off system (pTet off regulatory plasmid, Clontech. Inc., USA) that the expression of VR1 is induced by removing tetracycline from the medium. […] The cells were cultured after removing tetracycline prior to 48 hours. The tetracycline free culture medium was seeded at the bottom of T75 flask, incubated to the extent that its density reaches at 90%, and washed once with PBS buffer solution. The cells were collected by using saline solution containing 5 mM EDTA and subjected to centrifugation slightly to obtain precipitates, further, which had been kept at the temperature of −20° C. before use.
Experiments were designed to assess inhibition of specific [^3H]RTX binding to membranes by non-radioactive compounds. The binding assay mixture containing [^3H]RTX ([…]), various concentrations of competitive binding substances, 0.25 mg/ml of BSA (Cohn fraction V), 5×10^4 ˜5×10^5 numbers of VR1 and the expression cell, was admixed with saline solution containing 450 μl of Ca^2+ and Mg^2+ and […] of BSA. Non-specific binding assay was measured after mixing 100 nM of non-radioactive RTX thereto. The reaction mixture was treated for 60 min at 37° C. and the reaction was quenched by cooling over ice. RTX bound to the membrane of VR1 was subjected to centrifugation with maximum velocity for 15 minutes to precipitate its membrane residue, which results in separating from non-binding RTX. The tips of tube containing above precipitate was cut off and the amount of bound radioisotope was determined by scintillation counter (LS6500, Beckman-Coulter, USA). The measurement of binding was determined in triplicate in each experiment, and each experiment was repeated at least two times. Binding data were analyzed by fitting to the Hill equation and the Ki (equilibrium binding parameter) index, the Bmax (maximum binding parameter) index, and the cooperativity index etc., were determined by using origin 6.0 program (Origin, MicroCal Co., USA).
An initial compound was dissolved in DMSO (dimethyl sulfoxide) and diluted with saline solution containing Ca^2+ and […], and […] of BSA.

For assay [2], the target named is T2, VR1 (Rattus norvegicus, UniProt O35433).
T2 construct: expressed in transfected cells; host or cells: Chinese Hamster Ovary cells (CHO, ATCC CCL-61), Tet-off inducible expression
The assay is described as follows: 45Ca influx test in CHO cells expressing VR1, antagonistic activity against 50 nM capsaicin. The assay is classed as cell-based. Particulars: 45Ca uptake stimulated with 50 nM capsaicin. The procedure:
(§1) The ^45Ca Influx test by using CHO cells of the inventive compounds was measured by using Chinese Hamster Ovary (CHO, ATCC, No. CCL-61) cell whose cDNA of VR1 (pUHG102 VR1 plasmid) was transfected, which can control the expression of VR1 according to the presence of tetracycline and Tetracycline on/off system (pTet off regulatory plasmid, Clontech. Inc., USA) that the expression of VR1 is induced by removing tetracycline from the medium.
(§2) The CHO cells were poured onto 24 well plates to the extent that its density reaches at 30% and incubated for 24 hours at 37° C. The culture medium was exchanged to tetracycline free medium to induce the expression of VR1 and tested after 36 hours.
(§3) Together with 0.25 mg/ml BSA (Sigma A2153, USA), 1 Ci/ml ^45Ca(5-30 Ci/g used, ICN. Co., 62005 RT, U.S.A.), the test samples with increasing concentrations were added to each well. At the quenching moment of the incubation with ^45Ca, the cultured cells were removed from the medium, washed three times with cool PBS buffer solution containing 1.8 mM CaCl2 and 400 μl of RIPA buffer solution (50 mM Tris pH 7.4; 150 mM sodium chloride; 0.1% SDS; 1% sodium deoxycholate), was added in each well to homogenize the cells. The plates were stirred for 20 minutes slowly and 300 μl of cell lysate was transferred to scintillation vials from each wells. The radioactivity was determined by scintillation counter.
(§4) The data were assessed by determining four wells per each data point in each experiment and analyzed in computer by being transformed into Hill equation. The experiments were determined in triplicate in each sample comprising inventive compounds and control groups.
In order to determine the antagonistic activity, ^45Ca^2+-uptake stimulating-mixture was added with 50 nM capsaicin and the antagonistic activity was determined by the method for the agonistic activity. In case that 10 μM a certain compound cannot change the capsaicin-inducing activity, the compound shall be regarded as an […].

The target of assay [3] is T2, VR1. The assay is described as follows: 45Ca influx test in CHO cells expressing VR1, agonistic activity. Particulars: 45Ca uptake. The format is cell-based. The procedure:
The ^45Ca Influx test by using CHO cells expressing VR1 was performed by the procedure described in the literature (Lee, J. W., Bioorganic & Medicinal Chemistry, pp 1713-1720, 2001).
as §1, §2
as §3, with “In radioactive ^45Ca uptake experiment, The cells were incubated in […] of DMEM medium (Dulbecco's modified Eagles medium: Gibco-BRL, 31600-083) containing free of serum and 1.8 mM CaCl2 for 10 minutes at 37*C. Together” for “Together”
as §4

Another assay deals with Male ICR mice. The experiment in a line: Acetic acid-induced writhing test. The format is in vivo. Conditions: Mus musculus, ip; i.p. 30 mins before 1.2% acetic acid i.p.; 50% reduction of the number of writhes. The procedure:
The acetic acid-induced writhing test for testing the analgesic activity of inventive compounds prepared from above Examples was performed by the procedure described in the literature (Lee, J. W., Bioorganic & Medicinal Chemistry, pp 1713-1720, 2001).
Male ICR mice having its mean body weight of 25 g (CD-1; Biogenomics Co. Korea) were reared in lighting controlled environment (12 hrs on/12 hrs off) maintaining with temperatures at 22±2° C. and humidity at 50±5% and allowed to eat a diet and to drink tap water ad lib.
Mice were fasted overnight prior to testing and adopted to the environment.
0.3 ml of acetic acid solution (1.2%) was administrated in the mice intraperitoneally and then the mice were put into the transparent acryl box (15×15×15 cm). 5 minutes later, the number of abdominal constrictions was counted for 20 minutes. Each group consisting of ten mice was pretreated with test compounds or solvent (0.2 ml, i.p.) 30 mins before the injection of acetic acid. Test compounds were dissolved in the mixture of ethanol/Tween-80/saline ([…]) or cremophor EL/DMSO/d-water ([…]).
Analgesic activity of each drug was determined at several different concentrations.
The index of analgesic activity (eff) was defined as below Empirical formula 1. Analgesic activity (eff)=100−{(No. of abdominal constriction of test group/No. of abdominal constriction of control group)×100} [Empirical formula 1]
Analgesic activity was expressed as the reduction in the number of abdominal constrictions, of control animals (vehicle-pretreated mice) and animals pretreated with test compounds.
For orientation: Writhing tests count abdominal constrictions after an irritant is injected.

T2 sequence (O35433 whole entry): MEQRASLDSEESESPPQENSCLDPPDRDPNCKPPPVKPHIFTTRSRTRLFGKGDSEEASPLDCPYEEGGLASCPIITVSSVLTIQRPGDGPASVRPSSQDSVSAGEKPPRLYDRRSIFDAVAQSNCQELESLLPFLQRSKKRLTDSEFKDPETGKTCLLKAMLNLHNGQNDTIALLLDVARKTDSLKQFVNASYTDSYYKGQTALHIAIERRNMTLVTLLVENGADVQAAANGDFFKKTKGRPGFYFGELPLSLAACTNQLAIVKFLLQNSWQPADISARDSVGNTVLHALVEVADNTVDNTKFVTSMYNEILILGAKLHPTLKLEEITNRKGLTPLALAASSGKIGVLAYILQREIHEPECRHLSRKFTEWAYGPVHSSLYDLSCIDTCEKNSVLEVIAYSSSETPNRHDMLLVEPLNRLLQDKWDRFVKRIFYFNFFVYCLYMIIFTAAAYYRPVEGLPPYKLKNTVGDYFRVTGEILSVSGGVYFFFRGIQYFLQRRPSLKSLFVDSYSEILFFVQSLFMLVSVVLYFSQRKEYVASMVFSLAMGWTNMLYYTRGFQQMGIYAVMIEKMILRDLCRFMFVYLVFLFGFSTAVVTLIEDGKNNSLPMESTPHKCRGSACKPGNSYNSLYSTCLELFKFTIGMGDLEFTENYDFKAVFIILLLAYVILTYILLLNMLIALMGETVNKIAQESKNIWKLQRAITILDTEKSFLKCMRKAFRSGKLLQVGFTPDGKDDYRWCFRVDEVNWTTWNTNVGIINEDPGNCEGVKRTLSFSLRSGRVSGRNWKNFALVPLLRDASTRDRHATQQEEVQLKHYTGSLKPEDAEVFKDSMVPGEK
T1 sequence (O35433 whole entry): as above

What is called Ki is a measure of affinity in units of concentration, obtained from inhibition or displacement. Low values mean tighter binding, high ones weaker binding. The IC50 is the concentration that inhibits the measured activity by half. For `Oc1cc2c(cc1O)CN(C(=S)NCCc1ccc(Cl)cc1)CCC2` [Capsazepine, reference compound], the Ki in assay [1] was determined as 1350 nM. Further, the IC50 on VR1 [2] came out at 520 nM.
`CC(C)(C)c1ccc(CN(O)C(=S)NCc2ccc(NS(C)(=O)=O)c(Cl)c2)cc1` [Compound 31, N-(4-tert-butylbenzyl)-N-hydroxy-N-[3-chloro-4-(methylsulfonylamino)benzyl]thiourea] registered an inhibitory constant (Ki) in assay [1] of 1310 nM. In addition, on VR1 [2], the IC50 was 579 nM.
On to `CC(C)(C)c1ccc(CN(O)C(=S)NCc2ccc(NS(C)(=O)=O)c([N+](=O)[O-])c2)cc1` [Compound 32, N-(4-tert-butylbenzyl)-N-hydroxy-N-[4-(methylsulfonylamino)-3-nitrobenzyl]thiourea], for which the concentration for half-maximal inhibition (IC50) on VR1 [2] came to 635 nM.
As a reminder, the EC50 is the concentration at which the effect is half-maximal. A higher EC50 goes with a less potent agent. Compound `CC(C)(C)c1ccc(CN(O)C(=S)NCc2ccc(NS(C)(=O)=O)cc2F)cc1` [Compound 33, N-(4-tert-butylbenzyl)-N-hydroxy-N-[2-fluoro-4-(methylsulfonylamino)benzyl]thiourea] displayed a Ki in assay [1] of 1920 nM. For the same compound, the midpoint of the response at VR1 [3], the EC50, lay at 12300 nM.
For the compound `CC(C)(C)c1ccc(CN(O)C(=S)NCc2ccc(NS(C)(=O)=O)cc2Cl)cc1` [Compound 34, N-(4-tert-butylbenzyl)-N-hydroxy-N-[2-chloro-4-(methylsulfonylamino)benzyl]thiourea], the Ki in assay [1] was found to be 2270 nM.
In assay [1], `COc1cc(CNC(=S)N(O)CC(COC(=O)C(C)(C)C)Cc2ccc(C)c(C)c2)ccc1NS(C)(=O)=O` (stereo not drawn) [Compound 36, N-[2-(3,4-dimethylbenzyl)-3-(pivaloyloxy)propyl]-N-hydroxy-N-[3-methoxy-4-(methylsulfonylamino)benzyl]thiourea] showed a Ki of 396 nM. The same compound yielded an EC50 on VR1 [3] of 809 nM.
At VR1 [3], `Cc1ccc(CC(COC(=O)C(C)(C)C)CN(O)C(=S)NCc2ccc(NS(C)(=O)=O)cc2F)cc1C` (stereo not drawn) [Compound 38, N-[2-(3,4-dimethylbenzyl)-3-(pivaloyloxy)propyl]-N-hydroxy-N-[2-fluoro-4-(methylsulfonylamino)benzyl]thiourea] registered an EC50 of 1350 nM.
In turn, `Cc1ccc(CC(COC(=O)C(C)(C)C)CN(O)C(=S)NCc2ccc(NS(C)(=O)=O)cc2Cl)cc1C` (stereo not drawn) [Compound 39, N-[2-(3,4-dimethylbenzyl)-3-(pivaloyloxy)propyl]-N-hydroxy-N-[2-chloro-4-(methylsulfonylamino)benzyl]thiourea] gave a Ki in assay [1] of 221 nM. At VR1 [2], this compound gave a half-maximal inhibitory concentration (IC50) of 757 nM.
As for `CC(C)(C)C(=O)OCC(Cc1ccc(C(C)(C)C)cc1)CN(O)C(=S)NCc1ccc(NS(C)(=O)=O)cc1` (stereo not drawn) [Compound 40, N-[2-(4-tert-butylbenzyl)-3-(pivaloyloxy)propyl]-N-hydroxy-N-[4-(methylsulfonylamino)benzyl]thiourea], the Ki in assay [1] was 536 nM. Further, on VR1 [3], the “EC50 (nM) (VR1/CHO)” value was “weak”.
Turning to `CC(C)(C)C(=O)OCC(Cc1ccc(C(C)(C)C)cc1)CN(O)C(=S)NCc1ccc(NS(C)(=O)=O)c(F)c1` (stereo not drawn) [Compound 41, N-[2-(4-tert-butylbenzyl)-3-(pivaloyloxy)propyl]-N-hydroxy-N-[3-fluoro-4-(methylsulfonylamino)benzyl]thiourea], in assay [1], the affinity, expressed as Ki, was 405 nM. In addition, the “IC50 (nM) (VR1/CHO)” value against VR1 [2] is “Weak”. Besides, at VR1 [3], the “EC50 (nM) (VR1/CHO)” value was “Weak”.
In assay [1], `CC(C)(C)c1ccc(CC(=O)N(O)Cc2ccc(NS(C)(=O)=O)cc2)cc1` [Compound 63, N-hydroxy-N-[4-(methylsulfonylamino)benzyl]-2-(4-tert-butylphenyl)acetamide] gave a Ki of 5310 nM. Moreover, the EC50 at VR1 [3] amounted to 1960 nM.
In the case of `Cc1ccc(CC(CNC(=S)N(O)Cc2ccc(NS(C)(=O)=O)c(F)c2)COC(=O)C(C)(C)C)cc1C` (stereo not drawn) [Compound 64, N-[2-(3,4-dimethylbenzyl)-3-(pivaloyloxy)propyl]-N-hydroxy-N-[3-fluoro-4-(methylsulfonylamino)benzyl]thiourea], the Ki in assay [1] amounted to 546 nM. The “EC50 (nM) (VR1/CHO)” value at VR1 [3] is “Weak”.
One may read the ED50 as the dose that gives a 50% effect, or the effect in half of the subjects. The low end stands for greater potency, the high end for weaker potency. `Cc1ccc(CC(CNC(=S)NCc2ccc(NS(C)(=O)=O)cc2)COC(=O)C(C)(C)C)cc1C` (stereo not drawn) [JYL-827, reference compound] came in with an ED50 in the assay with Male ICR mice of 2.62 µg/kg.
In the assay on Male ICR mice, `Cc1ccc(CC(CNC(=S)NCc2ccc(NS(C)(=O)=O)c(F)c2)COC(=O)C(C)(C)C)cc1C` (stereo not drawn) [JYL-1433, reference compound] yielded an ED50 of 7.43 µg/kg.
`CC(C)(C)c1ccc(CNC(=S)NCc2ccc(NS(C)(=O)=O)cc2)cc1` [KJM-429, reference compound] registered an ED50 in the assay on Male ICR mice of 1410 µg/kg.
`O=C(c1ccccc1)c1ccc2n1CCC2C(=O)O` (stereo not drawn) [Ketorolac, reference compound] returned an ED50 with Male ICR mice of 2820 µg/kg.
For the compound `CC(C)(C)c1ccc(CNC(=S)NCc2ccc(NS(C)(=O)=O)c(F)c2)cc1` [SC-0030, reference compound], in the assay on Male ICR mice, the ED50 came to 1.26 µg/kg.
